Entries after “also recorded” stand apart in the source; their conditions may differ.
How the values were obtained:
[1] = pH value of the aqueous solution with or without HSA; format: physicochemical; conditions: about 25° C.
Protocol: 245.3 mg of fosaprepitant dimeglumine and 0.28 mg of palonosetron hydrochloride were dissolved in methanol, and then methanol was removed from the solution to give a white solid.

[2] = Stability of fosaprepitant in a human serum albumin (HSA) solution, visual clarity; format: physicochemical; conditions: for appearance of solution initially: 25° C.; for appearance of solution over time: after 1, 2, 3, 4, 6, 8 and 24 hours at 25° C.
Protocol: To 3 different vials containing 25 mg of fosaprepitant dimeglumine each were added 1 ml of 10% HSA solution (w/v), 1 ml of 5% HSA solution (w/v), and 1 ml of 2% HSA solution (w/v), respectively, at 25° C.

[3] = cited from earlier work
[4] = 25 mg in 1 ml of 2% HSA solution (w/v)
[5] = 25 mg in 1 ml of 5% HSA solution (w/v)
[6] = 25 mg in 1 ml of 10% HSA solution (w/v)

Compound | pH value of the clear aqueous solution ([1]; 24.5 mg in 15 ml of 0.9% saline solution) | pH value of the clear aqueous solution ([1]; 24.5 mg in 15 ml of HSA solution (0.5 ml of 20% HSA + 14.5 ml of 0.9% saline)) | appearance of solution initially [2, 4] | appearance of solution over time [2, 4] | appearance of solution initially [2, 5] | appearance of solution over time [2, 5] | appearance of solution initially [2, 6] | appearance of solution over time [2, 6] | solubility in acetonitrile ([3]; acetonitrile) | solubility in ethanol ([3]; ethanol) | solubility in isopropyl acetate ([3]; isopropyl acetate) | solubility in water [3]
C[C@@H](O[C@H]1OCCN(Cc2nn(P(=O)(O)O)c(=O)[nH]2)[C@H]1c1ccc(F)cc1)c1cc(C(F)(F)F)cc(C(F)(F)F)c1 [fosaprepitant dimeglumine] | 7.70 | 7.15 | clear aqueous solution | stayed clear | clear aqueous solution | stayed clear | clear aqueous solution | stayed clear | – | – | – | –
C[C@@H](O[C@H]1OCCN(Cc2n[nH]c(=O)[nH]2)[C@H]1c1ccc(F)cc1)c1cc(C(F)(F)F)cc(C(F)(F)F)c1 [Aprepitant, aprepitant] | – | – | – | – | – | – | – | – | slightly soluble | sparingly soluble | sparingly soluble | practicallyinsoluble; also recorded: insoluble
C[C@@H](O[C@H]1OCCN(Cc2nc(O)n(P(=O)(O)O)n2)[C@H]1c1ccc(F)cc1)c1cc(C(F)(F)F)cc(C(F)(F)F)c1 [fosaprepitant] | – | – | – | – | – | – | – | – | – | – | – | soluble

From US20220226444A1, “FORMULATIONS OF FOSAPREPITANT AND APREPITANT” (Zhuhai Beihai Biotech Co., Ltd., priority 2016, published 2022)
